Results reported in publication PMC12635268, “Novel antimicrobial peptides and peptide-microbiome crosstalk in Appalachian salamander skin” (NPJ Biofilms and Microbiomes, 2025).
Converted amounts (≈) assume the structure as drawn. Ends that are not written are not given here. Peptide text beside a SMILES is read from it.

What was measured:
P. aeruginosa PA01 = assay: microbe, parasite or virus in culture; type: cell-based; conditions: for MIC: 20 h
Description: Antimicrobial susceptibility testing of the 20 synthesized peptides against 17 bacterial strains of clinical relevance in the ESKAPEE panel was conducted using minimum inhibitory concentration (MIC) assays following the broth microdilution method outlined by Parker et al.[91]. The ESKAPEE panel is comprised of fourteen American Type Culture Collection (ATCC) strains and three Multidrug Resistant Organism Repository and Surveillance Network (MRSN) bacterial strains. These strains represent at least one drug-susceptible strain and one drug-resistant strain for each bacterium to assess drug efficacy across various resistance mechanisms. This panel is comprised of the following bacterial species and strains: E. faecium (ATCC 19434, ATCC 49224), S. aureus (ATCC 25923, ATCC 43300), K. pneumoniae (ATCC 700603, ATCC 13883, MRSN 1320), A. baumannii (ATCC 17978, ATCC 19606, MRSN 959), P. aeruginosa (ATCC 15692, ATCC 27853, MRSN 5519), E. cloacae (ATCC 13047, ATCC 35549), and E. coli (ATCC 35218, ATCC 43888). Bacteria were grown in cation-adjusted Mueller-Hinton broth (CAMHB) to achieve a final inoculum of 1 × 10⁵ CFU/mL. CAMHB is selected for its batch-to-batch reproducibility, low levels of antimicrobial inhibitors, and ability to support the growth of most bacterial pathogens.
Briefly, lyophilized peptides were dissolved in 0.2% TFA + 0.4% BSA in water to 2.56 mg/mL, ultrasonicated for 20 min, diluted 10-fold into CAMHB, and then serially diluted 2-fold in 0.02% TFA + 0.04% BSA in CAMHB and assayed at a concentration of 0.25 to 128 μg/mL. Assays were set up using the Tecan Freedom EVO liquid handling robot and software (Tecan, Switzerland) with 50 μL of bacterial inoculum and 50 μL of peptide transferred into round-bottom 96-well microtiter plates. Each plate assay was performed in duplicate and incubated at 37 °C for 20 h without agitation. Bacterial growth was assessed using the BIOMIC V3 Image Analysis system (Giles Scientific, USA) and the MIC values were determined visually according to the Clinical and Laboratory Standards Institute (CLSI) guidelines.

E. cloacae ATCC 35549 = assay: microbe, parasite or virus in culture; conditions: for MIC: E. cloacae 35549, CAMHB, 1 × 10⁵ CFU/mL, 0.25 to 128 μg/mL, 37 °C 20 h, duplicate, read visually (CLSI)
Method in brief: (§1)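 Peptides tested 0.25–128 μg/mL (2-fold dilutions, TFA/BSA carrier) against 1 × 10⁵ CFU/mL inoculum in CAMHB, duplicates.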

P. aeruginosa ATCC 27853 = assay: microbe, parasite or virus in culture
Method in brief: as §1

E. faecium ATCC 19434 = assay: microbe, parasite or virus in culture; conditions: for MIC: E. faecium 19434, CAMHB, 1 × 10⁵ CFU/mL, 0.25 to 128 μg/mL, 37 °C 20 h, duplicate, read visually (CLSI)
Method in brief: as §1

P. aeruginosa MRSN 5519 = assay: microbe, parasite or virus in culture; conditions: for MIC: P. aeruginosa 5519, CAMHB, 1 × 10⁵ CFU/mL, 0.25 to 128 μg/mL, 37 °C 20 h, duplicate, read visually (CLSI)
Method in brief: as §1

E. coli ATCC 43888 = assay: microbe, parasite or virus in culture; conditions: ATCC 43888, 20 h
Method in brief: as §1

E. faecium ATCC 49224 = assay: microbe, parasite or virus in culture; conditions: for MIC: E. faecium 49224, CAMHB, 1 × 10⁵ CFU/mL, 0.25 to 128 μg/mL, 37 °C 20 h, duplicate, read visually (CLSI)
Method in brief: as §1

E. coli ATCC 35218 = assay: microbe, parasite or virus in culture
Method in brief: as §1

S. aureus ATCC 25923 = assay: microbe, parasite or virus in culture
Method in brief: as §1

E. cloacae ATCC 13047 = assay: microbe, parasite or virus in culture; conditions: for MIC: E. cloacae 13047, CAMHB, 1 × 10⁵ CFU/mL, 0.25 to 128 μg/mL, 37 °C 20 h, duplicate, read visually (CLSI)
Method in brief: as §1

A. baumannii ATCC 19606 = assay: microbe, parasite or virus in culture; conditions: for MIC: A. baumannii 19606, CAMHB, 1 × 10⁵ CFU/mL, 0.25 to 128 μg/mL, 37 °C 20 h, duplicate, read visually (CLSI)
Method in brief: as §1

[1] = tested on: K. pneumoniae ATCC 700603; assay: microbe, parasite or virus in culture; conditions: K. pneumoniae 700603; for MIC: CAMHB, 1 × 10⁵ CFU/mL, 0.25 to 128 μg/mL, 37 °C 20 h, duplicate, read visually (CLSI)
Method in brief: as §1

A. baumannii ATCC 17978 = assay: microbe, parasite or virus in culture; conditions: for MIC: A. baumannii 17978, CAMHB, 1 × 10⁵ CFU/mL, 0.25 to 128 μg/mL, 37 °C 20 h, duplicate, read visually (CLSI)
Method in brief: as §1

K. pneumoniae ATCC 13883 = assay: microbe, parasite or virus in culture; conditions: for MIC: K. pneumoniae 13883, CAMHB, 1 × 10⁵ CFU/mL, 0.25 to 128 μg/mL, 37 °C 20 h, duplicate, read visually (CLSI)
Method in brief: as §1

S. aureus ATCC 43300 = assay: microbe, parasite or virus in culture; conditions: S. aureus 43300; for MIC: CAMHB, 1 × 10⁵ CFU/mL, 0.25 to 128 μg/mL, 37 °C 20 h, duplicate, read visually (CLSI)
Method in brief: as §1

K. pneumoniae 4640 = conditions: for MIC: K. pneumoniae 4640, CAMHB, 1 × 10⁵ CFU/mL, 0.25 to 128 μg/mL, 37 °C 20 h, duplicate, read visually (CLSI)
[2] = parameters: method as in Biomatik (vendor); conditions: 1.0 mg peptide in 1.0 ml solvent; peptides synthesized by Biomatik; ref Biomatik (vendor); cited from earlier work
P. aeruginosa PA01 (Si) = assay: microbe, parasite or virus in culture; type: cell-based; conditions: Si
From the text: Supplement 41522_2025_837_MOESM13_ESM.xlsx, sheet "Table_S13_ESKAPEE-MIC" | column: Bacterial MIC (µg/mL)

A. baumannii 5075 = conditions: for MIC: CAMHB, 1 × 10⁵ CFU/mL, 0.25 to 128 μg/mL, 37 °C 20 h, duplicate, read visually (CLSI)

| Compound | MIC (P. aeruginosa PA01) [mg/L] | MIC (E. cloacae ATCC 35549) [mg/L] | MIC (E. faecium ATCC 19434) [mg/L] | MIC (P. aeruginosa MRSN 5519) [mg/L] | Bacterial MIC (E. coli ATCC 43888) [mg/L] | MIC (E. faecium ATCC 49224) [mg/L] | Bacterial MIC (E. coli ATCC 35218; ATCC 35218, 20 h) [mg/L] | MIC (E. coli ATCC 35218; ATCC 35218, 20 h) [mg/L] | Bacterial MIC (S. aureus ATCC 25923; ATCC 25923, 20 h) [mg/L] | MIC (E. cloacae ATCC 13047) [mg/L] | MIC (A. baumannii ATCC 19606) [mg/L] | MIC [1] [mg/L] | MIC (A. baumannii ATCC 17978) [mg/L] | MIC (K. pneumoniae ATCC 13883) [mg/L] | MIC (S. aureus ATCC 43300) [mg/L] | MIC (K. pneumoniae 4640) [mg/L] | Suggest solvent (solubility) [2] | Bacterial MIC (P. aeruginosa PA01 (Si)) [mg/L] | MIC (A. baumannii 5075) [mg/L] | also measured |
| --- | --- | --- | --- | --- | --- | --- | --- | --- | --- | --- | --- | --- | --- | --- | --- | --- | --- | --- | --- | --- |
| CC[C@H](C)[C@H](NC(=O)[C@H](CO)NC(=O)[C@H](Cc1ccc(O)cc1)NC(=O)[C@H](CS)NC(=O)CNC(=O)[C@H](C)NC(=O)[C@H](CCCNC(=N)N)NC(=O)[C@H](CCCNC(=N)N)NC(=O)[C@H](Cc1ccc(O)cc1)NC(=O)[C@H](CS)NC(=O)[C@H](CCCCN)NC(=O)[C@H](Cc1c[nH]c2ccccc12)NC(=O)[C@@H]1CCCN1C(=O)[C@H](CCCNC(=N)N)NC(=O)[C@H](C)NC(=O)[C@H](CCCNC(=N)N)NC(=O)[C@H](CCCNC(=N)N)NC(=O)[C@@H](NC(=O)[C@H](CCCNC(=N)N)NC(=O)[C@@H](NC(=O)[C@H](CCCNC(=N)N)NC(=O)[C@H](CCCCN)NC(=O)[C@@H](N)CO)[C@@H](C)O)C(C)C)C(=O)N[C@H](C(=O)NCC(=O)N[C@@H](CCSC)C(=O)N[C@@H](Cc1ccccc1)C(=O)N[C@@H](CCCCN)C(=O)N[C@@H](CCCCN)C(=O)N[C@@H](CO)C(=O)O)[C@@H](C)CC [Pcin-CATH5] (H-SKRTRVRRARPWKCYRRAGCYSIIGMFKKS-OH; N-terminus and C-terminus assumed) | 16 (≈ 4.37 µM) | >128 | 64 (≈ 17.5 µM) | >128 | 16 | 64 (≈ 17.5 µM) | 16 to 32 | 32 (≈ 8.74 µM) | 128 | >128 | 8 (≈ 2.18 µM) | >128 | 8 (≈ 2.18 µM) | >128 | 64 (≈ 17.5 µM) | >128 | 1.0mg peptide soluble in 1.0ml H2O | 8 to 16 | 4 (≈ 1.09 µM) | MIC (P. aeruginosa ATCC 27853; ATCC 27853, 20 h): >128 mg/L; MIC (S. aureus ATCC 25923; ATCC 25923, 20 h): >128 mg/L |
| CC[C@H](C)[C@H](NC(=O)[C@H](CO)NC(=O)[C@H](CO)NC(=O)[C@H](Cc1ccccc1)NC(=O)[C@H](CS)NC(=O)CNC(=O)CNC(=O)[C@H](CCCNC(=N)N)NC(=O)[C@H](CCCNC(=N)N)NC(=O)[C@H](Cc1ccc(O)cc1)NC(=O)[C@H](CS)NC(=O)[C@H](CC(N)=O)NC(=O)[C@H](Cc1c[nH]c2ccccc12)NC(=O)[C@@H]1CCCN1C(=O)[C@H](CCCNC(=N)N)NC(=O)[C@H](C)NC(=O)[C@H](CCCNC(=N)N)NC(=O)[C@H](CCCNC(=N)N)NC(=O)[C@@H](NC(=O)[C@H](CCCNC(=N)N)NC(=O)[C@@H](NC(=O)[C@H](CCCNC(=N)N)NC(=O)[C@H](CCCCN)NC(=O)[C@@H](N)CC(C)C)[C@@H](C)O)C(C)C)C(=O)NCC(=O)N[C@@H](CO)C(=O)N[C@@H](CC(C)C)C(=O)N[C@H](C(=O)N1CCC[C@H]1C(=O)N[C@H](C(=O)O)C(C)C)[C@@H](C)O [Pcin-CATH3] (H-LKRTRVRRARPWNCYRRGGCFSSIGSLTPV-OH; N-terminus and C-terminus assumed) | 32 (≈ 9.16 µM) | >128 | >128 | >128 | 64 | >128 | 128 | >128 |  | >128 | 64 (≈ 18.3 µM) | >128 | 64 (≈ 18.3 µM) | >128 | >128 | >128 | 1.0mg peptide soluble in 1.0ml H2O | 32 | 16 (≈ 4.58 µM) | MIC (P. aeruginosa ATCC 27853; P. aeruginosa 27853, CAMHB, 1 × 10⁵ CFU/mL, 0.25 to 128 μg/mL, 37 °C 20 h, duplicate, read visually (CLSI)): >128 mg/L; MIC (S. aureus ATCC 25923; S. aureus 25923, CAMHB, 1 × 10⁵ CFU/mL, 0.25 to 128 μg/mL, 37 °C 20 h, duplicate, read visually (CLSI)): >128 mg/L |
| KRAGYARMIR [PrAd-Eb18] |  |  |  |  | >128.000 |  |  |  | >128.000 |  |  |  |  |  |  |  | 1.0mg peptide soluble in 1.0ml H2O | >128.000 |  | Bacterial MIC (P. aeruginosa PA01; P. aeruginosa 15692 (PAO1), Week 2 (12/14/2023)): >128.000 mg/L; Bacterial MIC (E. cloacae ATCC 35549; ATCC 35549, 20 h): >128.000 mg/L; Bacterial MIC (P. aeruginosa ATCC 27853; ATCC 27853, 20 h): >128.000 mg/L; Bacterial MIC (E. faecium ATCC 19434; ATCC 19434, 20 h): >128.000 mg/L; Bacterial MIC (P. aeruginosa MRSN 5519; MRSN 5519, 20 h): >128.000 mg/L; Bacterial MIC (E. faecium ATCC 49224; ATCC 49224, 20 h): >128.000 mg/L; Bacterial MIC (E. coli ATCC 35218; E. coli 35218, Week 2 (12/14/2023)): >128.000 mg/L; Bacterial MIC (E. cloacae ATCC 13047; ATCC 13047, 20 h): >128.000 mg/L; Bacterial MIC (A. baumannii ATCC 19606; ATCC 19606, 20 h): >128.000 mg/L; Bacterial MIC ([1]; Week 2 (12/14/2023)): >128.000 mg/L; Bacterial MIC (A. baumannii ATCC 17978; ATCC 17978, 20 h): >128.000 mg/L; Bacterial MIC (K. pneumoniae ATCC 13883; ATCC 13883, 20 h): >128.000 mg/L; Bacterial MIC (S. aureus ATCC 43300; Week 2 (12/14/2023)): >128.000 mg/L; Bacterial MIC (K. pneumoniae 4640; 4640, 20 h): >128.000 mg/L; Bacterial MIC (A. baumannii 5075; Week 2 (12/14/2023)): >128.000 mg/L |
